We go through 23 compounds from patent US8067395B2, “Inhibitors of tyrosine kinases and uses thereof” (Pharmacyclics, Inc., priority 2006, dated 2011).

Sequence of Btk (Q06187 whole entry): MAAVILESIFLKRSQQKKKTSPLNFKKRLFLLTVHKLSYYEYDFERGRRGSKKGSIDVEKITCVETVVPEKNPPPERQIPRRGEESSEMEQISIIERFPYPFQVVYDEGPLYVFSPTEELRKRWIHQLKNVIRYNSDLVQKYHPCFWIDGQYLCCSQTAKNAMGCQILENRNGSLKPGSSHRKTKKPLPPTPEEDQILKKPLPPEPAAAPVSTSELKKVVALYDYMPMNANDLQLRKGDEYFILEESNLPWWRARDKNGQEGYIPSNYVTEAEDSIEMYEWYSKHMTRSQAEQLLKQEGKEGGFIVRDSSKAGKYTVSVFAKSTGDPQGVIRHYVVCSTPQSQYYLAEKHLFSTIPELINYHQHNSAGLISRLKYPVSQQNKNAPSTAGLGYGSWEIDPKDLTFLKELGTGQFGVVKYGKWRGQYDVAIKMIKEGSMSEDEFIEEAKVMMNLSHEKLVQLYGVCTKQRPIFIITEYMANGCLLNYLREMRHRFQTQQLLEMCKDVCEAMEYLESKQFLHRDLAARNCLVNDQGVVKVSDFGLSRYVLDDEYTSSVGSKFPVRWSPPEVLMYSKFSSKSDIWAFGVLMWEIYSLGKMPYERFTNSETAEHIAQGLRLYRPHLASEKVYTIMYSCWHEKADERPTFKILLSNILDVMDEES

This assay addresses Btk (Homo sapiens, UniProt Q06187). Put plainly: Btk TR-FRET kinase inhibition assay. The note with it: pH 7.4, ATP at the Km for the kinase, 1 μM peptide substrate, [Btk]total=0.5 nM, read-out: Btk-TRFRET (Ki). In kind it is biochemical. The protocol: Suitable in vitro assays for measuring kinase activity and the inhibition thereof by compounds are known (e.g., see Kuzmic et al. Anal. Biochem. 2000, 286, 45-50).
The following protocol represents an assay for determination of inhibition of kinases under physiological conditions (pH 7.4). Kinase activity was determined using a time-resolved fluorescence resonance energy transfer (TR-FRET) methodology. Measurements were performed in a reaction volume of 50 μL using 96-well assay plates. Kinase enzyme, inhibitor, ATP (at the Km for the kinase), and 1 μM peptide substrate (Biotin-AVLESEEELYSSARQ-NH2) were incubated in a reaction buffer composed of 20 mM Tris, 50 mM NaCl, MgCl2 (5-25 mM depending on the kinase), 1 mM DTT, 0.1 mM EDTA, 0.01% bovine serum albumin, 0.005% Tween-20, and 10% DMSO at pH 7.4 for one hour. The reaction was quenched by the addition of 1.2 equivalents of EDTA (relative to Mg^2+) in 25 μL of 1× Lance buffer (Perkin-Elmer). Streptavidin-APC (Perkin-Elmer) and Eu-labeled p-Tyr100 antibody (Perkin-Elmer) in 1× Lance buffer were added in a 25 μL volume to give final concentrations of 100 nM and 2.5 nM, respectively, and the mixture was allowed to incubate for one hour. The TR-FRET signal was measured on a multimode plate reader with an excitation wavelength of 330 nm and detection wavelengths of 615 nm and 665 nm. Activity was determined by the ratio of the fluorescence at 665 nm to that at 615 nm. For each compound, enzyme activity was measured at various concentrations of compound. Negative control reactions were performed in the absence of inhibitor in replicates of six, and two no-enzyme controls were used to determine baseline fluorescence levels. Inhibition constants were obtained using the program BatchKi (Kuzmic et al. Anal. Biochem. 2000, 286, 45-50). IC50s were obtained according to this equation: IC50={Ki(app)/(1+[ATP]/Km^ATP)}+[E]total/2; for all kinases, [ATP]=Km^ATP, [Btk]total=0.5 nM and [Lck]total=6 nM.
By Ki is commonly meant a dissociation constant, usually derived from enzyme kinetics or from competition with a known ligand. As for `Cc1cc(F)ccc1Nc1nc2ccc3c(C)c(C=CCN4CCN(c5ccncc5)CC4)[nH]c(=O)c3c2n1C` [Compound 23, 2-(4-fluoro-2-methylphenylamino)-1,6-dimethyl-7-[3-(N-(pyridin-4-yl)-piperazin-1-yl)-propenyl]-1,8-dihydro-imidazo[4,5-h]isoquinolin-9-one], the Ki was under 100 nM.
`Cc1cc(F)ccc1Nc1nc2ccc3c(C)c(/C=C/CN4CCN(S(C)(=O)=O)CC4)[nH]c(=O)c3c2n1C` [Compound 24, 2-(4-fluoro-2-methylphenylamino)-1,6-dimethyl-7-[3-(N-methylsulfonylpiperazin-1-yl)-propenyl]-1,8-dihydro-imidazo[4,5-h]isoquinolin-9-one]: the inhibition constant Ki is under 100 nM.
The result for `Cc1cc(F)ccc1Nc1nc2ccc3c(C)c(C=CCN4CCN(c5ccccn5)CC4)[nH]c(=O)c3c2n1C` [Compound 26, 2-(4-fluoro-2-methylphenylamino)-1,6-dimethyl-7-[3-(N-(pyridin-2-yl)-piperazin-1-yl)-propenyl]-1,8-dihydro-imidazo[4,5-h]isoquinolin-9-one] reads under 100 nM.
Under `Cc1cc(F)ccc1Nc1nc2ccc3c(C)c(C=CCN4CCN(c5ncccn5)CC4)[nH]c(=O)c3c2n1C` [Compound 27, 2-(4-fluoro-2-methylphenylamino)-1,6-dimethyl-7-[3-(N-(pyrimidin-2-yl)-piperazin-1-yl)-propenyl]-1,8-dihydro-imidazo[4,5-h]isoquinolin-9-one] stands under 100 nM.
As to `Cc1cc(F)ccc1Nc1nc2ccc3c(C)c(C=CCN4CCN(Cc5c(Cl)cccc5Cl)CC4)[nH]c(=O)c3c2n1C` [Compound 28, 2-(4-fluoro-2-methylphenylamino)-1,6-dimethyl-7-[3-(N-(2,6-dichlorophenylmethyl)-piperazin-1-yl)-propenyl]-1,8-dihydro-imidazo[4,5-h]isoquinolin-9-one], the inhibition constant (Ki) was under 100 nM.
Take `Cc1cc(F)ccc1Nc1nc2ccc3c(C)c(C=CCN4CCN(S(=O)(=O)c5ccccc5)CC4)[nH]c(=O)c3c2n1C` [Compound 29, 2-(4-fluoro-2-methylphenylamino)-1,6-dimethyl-7-[3-(N-phenylsulfonylpiperazin-1-yl)-propenyl]-1,8-dihydro-imidazo[4,5-h]isoquinolin-9-one]: the Ki is under 100 nM.
For `Cc1cc(F)ccc1Nc1nc2ccc3c(C)c(/C=C/CN4CCN(c5ccc(F)cc5)CC4)[nH]c(=O)c3c2n1C` [Compound 30, 2-(4-fluoro-2-methylphenylamino)-1,6-dimethyl-7-[3-(N-(4-fluorophenyl)-piperazin-1-yl)-propenyl]-1,8-dihydro-imidazo[4,5-h]isoquinolin-9-one], the Ki was under 100 nM.
In the case of `Cc1cc(F)ccc1Nc1nc2ccc3c(C)c(C=CCN4CCN(C(=O)OC(C)(C)C)CC4)[nH]c(=O)c3c2n1C` [Compound 31, 2-(4-fluoro-2-methylphenylamino)-1,6-dimethyl-7-[3-(N-tert-butyloxycarbonylpiperazin-1-yl)-propenyl]-1,8-dihydro-imidazo[4,5-h]isoquinolin-9-one], the Ki is under 100 nM.
For the compound `Cc1cc(F)ccc1Nc1nc2ccc3c(C)c(C=CCN4CCN(S(=O)(=O)N(C)C)CC4)[nH]c(=O)c3c2n1C` [Compound 32, 2-(4-fluoro-2-methylphenylamino)-1,6-dimethyl-7-[3-(N—(N,N-dimethylaminosulfonyl)-piperazin-1-yl)-propenyl]-1,8-dihydro-imidazo[4,5-h]isoquinolin-9-one], the Ki is under 100 nM.
Turning to `CCC(=O)N1CCN(CC=Cc2[nH]c(=O)c3c(ccc4nc(Nc5ccc(F)cc5C)n(C)c43)c2C)CC1` [Compound 33, 2-(4-fluoro-2-methylphenylamino)-1,6-dimethyl-7-[3-(N-ethylcarbonylpiperazin-1-yl)-propenyl]-1,8-dihydro-imidazo[4,5-h]isoquinolin-9-one], the Ki is under 100 nM.
`Cc1cc(F)ccc1Nc1nc2ccc3c(C)c(C=CCN4CCN(S(=O)(=O)C(C)C)CC4)[nH]c(=O)c3c2n1C` [Compound 34, 2-(4-fluoro-2-methylphenylamino)-1,6-dimethyl-7-[3-(N-(isopropylsulfonyl)-piperazin-1-yl)-propenyl]-1,8-dihydro-imidazo[4,5-h]isoquinolin-9-one]: the Ki was under 100 nM.
As for `CCS(=O)(=O)N1CCN(CC=Cc2[nH]c(=O)c3c(ccc4nc(Nc5ccc(F)cc5C)n(C)c43)c2C)CC1` [Compound 35, 2-(4-fluoro-2-methylphenylamino)-1,6-dimethyl-7-[3-(N-(ethylsulfonyl)-piperazin-1-yl)-propenyl]-1,8-dihydro-imidazo[4,5-h]isoquinolin-9-one], the Ki was under 100 nM.
As to `Cc1cc(F)ccc1Nc1nc2ccc3c(C)c(C=CCN4CCN(C(=O)C(C)C)CC4)[nH]c(=O)c3c2n1C` [Compound 36, 2-(4-fluoro-2-methylphenylamino)-1,6-dimethyl-7-[3-(N-isopropylcarbonylpiperazin-1-yl)-propenyl]-1,8-dihydro-imidazo[4,5-h]isoquinolin-9-one], the inhibition constant Ki is under 100 nM.
As to `Cc1c(C=CS(=O)(=O)c2ccccc2)[nH]c(=O)c2c1ccc1nc(Nc3c(Cl)cccc3Cl)n(C)c12` [Compound 37, 2-(2,6-dichlorophenylamino)-1,6-dimethyl-7-[2-(phenylsulfonyl)-ethenyl]-1,8-dihydro-imidazo[4,5-h]isoquinolin-9-one], the Ki was under 100 nM.
Turning to `Cc1c(C(O)C(F)(F)c2cn(Cc3ccccc3)nn2)[nH]c(=O)c2c1ccc1nc(Nc3c(Cl)cccc3Cl)n(C)c12` (centres unmarked) [Compound 40, 2-(2,6-dichlorophenylamino)-1,6-dimethyl-7-[2,2-difluoro-1-hydroxy-2-(N-phenylmethyl-[1,2,3]triazol-4-yl)-ethyl]-1,8-dihydro-imidazo[4,5-h]isoquinolin-9-one], the Ki is over 1000 nM.
As to `Cc1c(C(O)C#Cc2ccccc2)[nH]c(=O)c2c1ccc1nc(Nc3c(Cl)cccc3Cl)n(C)c12` (centres unmarked) [Compound 41, 2-(2,6-dichlorophenylamino)-1,6-dimethyl-7-(1-hydroxy-3-phenylprop-2-yn-1-yl)-1,8-dihydro-imidazo[4,5-h]isoquinolin-9-one], the Ki lay within 100 to 1000 nM.
As for `C#CCN(C)CC=Cc1[nH]c(=O)c2c(ccc3nc(Nc4c(Cl)cccc4Cl)n(C)c32)c1C` [Compound 42, 2-(2,6-dichlorophenylamino)-1,6-dimethyl-7-[3-(N-methyl-N-(prop-2-ynyl)amino)prop-1-enyl]-1,8-dihydro-imidazo[4,5-h]isoquinolin-9-one], the Ki is under 100 nM.
`C#CCN(C)CC=Cc1[nH]c(=O)c2c(ccc3nc(Nc4ccc(F)cc4C)n(C)c32)c1C` [Compound 43, 2-(4-fluoro-2-methylphenylamino)-1,6-dimethyl-7-[3-(N-methyl-N-(prop-2-ynyl)amino)prop-1-enyl]-1,8-dihydro-imidazo[4,5-h]isoquinolin-9-one]: the Ki was under 100 nM.
With `Cc1c(/C=N/O)[nH]c(=O)c2c1ccc1nc(Nc3c(Cl)cccc3Cl)n(C)c12` [Compound 44, 2-(2,6-dichlorophenylamino)-1,6-dimethyl-9-oxo-8,9-dihydro-1H-imidazo[4,5-h]isoquinoline-7-carbaldehyde oxime], the Ki is under 100 nM.
In the case of `Cc1c(C=NNC(=O)c2ccccc2)[nH]c(=O)c2c1ccc1nc(Nc3c(Cl)cccc3Cl)n(C)c12` [Compound 45, benzoic acid [2-(2,6-dichlorophenylamino)-1,6-dimethyl-9-oxo-8,9-dihydro-1H-imidazo[4,5-h]isoquinolin-7-ylmethylene]-hydrazide], the Ki is 100 to 1000 nM.
In the case of `Cc1c(C=NNC(=O)c2ccc(N(C)C)cc2)[nH]c(=O)c2c1ccc1nc(Nc3c(Cl)cccc3Cl)n(C)c12` [Compound 46, 4-(N,N-dimethylamino)-benzoic acid [2-(2,6-dichlorophenylamino)-1,6-dimethyl-9-oxo-8,9-dihydro-1H-imidazo[4,5-h]isoquinolin-7-ylmethylene]-hydrazide], the Ki is over 1000 nM.
Consider `Cc1c(C=NNC(=O)c2ccccn2)[nH]c(=O)c2c1ccc1nc(Nc3c(Cl)cccc3Cl)n(C)c12` [Compound 47, pyridine-2-carboxylic acid [2-(2,6-dichlorophenylamino)-1,6-dimethyl-9-oxo-8,9-dihydro-1H-imidazo[4,5-h]isoquinolin-7-ylmethylene]-hydrazide], for which the Ki is 100 to 1000 nM.
In the case of `Cc1c(C=NNC(=O)c2cccnc2)[nH]c(=O)c2c1ccc1nc(Nc3c(Cl)cccc3Cl)n(C)c12` [Compound 48, pyridine-3-carboxylic acid [2-(2,6-dichlorophenylamino)-1,6-dimethyl-9-oxo-8,9-dihydro-1H-imidazo[4,5-h]isoquinolin-7-ylmethylene]-hydrazide], the Ki was in the range of 100 to 1000 nM.
